For three compounds, molar enthalpy results are on record in the NIST ThermoML archive (doi:10.1016/j.jct.2008.11.008).

Numbers after ± are expanded uncertainties.

The series can be described thus: molar enthalpy of vaporization or sublimation. The note with it: 298.15 K; Liquid; Calvet microcalorimetry.
As for `COc1ccccc1Br` [1-bromo-2-methoxybenzene], the molar enthalpy amounted to 61.8 ± 2.6 kJ/mol.

For `COc1cccc(Br)c1` [1-bromo-3-methoxybenzene], the molar enthalpy came to 58 ± 2.4 kJ/mol. In the case of `COc1ccc(Br)cc1` [1-bromo-4-methoxybenzene] it was 58.3 ± 2.4 kJ/mol.
